Patent publication US20250000888A1, “METHODS OF TREATING MYELODYSPLASTIC SYNDROMES WITH DECITABINE AND CEDAZURIDINE” (priority 2021, published 2025)
Read-outs that look alike come from different tables or passages of the source.

Key:
patients with MDS = conditions: BSC arm 12; cited from earlier work
MDS patients [1] = conditions: cited from earlier work; for Median survival: previous reports in clinical trials; for Overall response rate: reported in clinical studies
[2] = tested on: patients with MDS or CMML
Procedure: Each treatment was given for the first 5 consecutive days of a 28-day cycle. […] Consistent with standard clinical care with parenteral DNMTi, cycles could be delayed or doses reduced if judged necessary for hematologic or nonhematologic recovery.
Efficacy and safety endpoints were calculated using all data through final cutoff.

MDS patients [3] = conditions: intention-to-treat; 15 mg/m^2 IV over 3 hours, every 8 hours for 3 days; BSC 14.9; cited from earlier work
[4] = Phase 3 randomized crossover trial: decitabine total exposure over 5 days (AUC) and plasma pharmacokinetics; assay type: in vivo, human; conditions: for AUC(0-t): human, plasma, intravenous, 20 mg/m^2/d, read-out: 5-Day Decitabine AUC0-24 LSM
Excerpt: A total of 118 patients was planned for this analysis to provide 90% power at the statistical significance level of 0.05, presuming the true ratio of geometric means is 1.0, the intrapatient coefficient of variation (CV) on an unlogged scale is 0.55, and the 90% confidence interval (CI) equivalence limits for the ratio of geometric means are 0.8 and 1.25. Assuming that 10% of patients would not be evaluable, 132 patients were planned to be randomized.
At least one of either day 1 or 5 decitabine AUC0-24 measurement during the IV decitabine cycle was required to be evaluable. […] Descriptive statistics were calculated for pharmacokinetic values.
Effects of the sequence and cycle were evaluated.

[5] = tested on: intermediate or high-risk MDS patients age 60 or older; conditions: low-dose decitabine IV; BSC 8.5; cited from earlier work
[6] = tested on: LINE-1 (long interspersed nuclear element-1) methylation; assay: Phase 3 trial pharmacodynamics: DNA demethylation by % LINE-1 methylation analysis; assay type: in vivo, human

## Nc1ncn([C@@H]2O[C@H](CO)[C@@H](O)[C@H]2O)c(=O)n1 [azacitidine, 5-azacytidine]
Patients with MDS
  Median time to leukemic transformation or death: 21 months
MDS patients [1]
  Median survival: 12.0-24.5 months
  Overall response rate: 44%-60%

## Nc1ncn([C@H]2C[C@H](O)[C@@H](CO)O2)c(=O)n1 [IV decitabine, 5-aza-2′-deoxycytidine]
[2]; Cycles 1 and 2
  Grade ≥3 TEAE Anemia, %: (32) %
  Grade ≥3 TEAE Febrile neutropenia, %: (7) %
  Grade ≥3 TEAE Leukopenia, %: (14) %
  Grade ≥3 TEAE Neutropenia, %: (29) %
  Grade ≥3 TEAE Pneumonia, %: (5) %
  Grade ≥3 TEAE Thrombocytopenia, %: (32) %
  ≥1 Grade ≥3 TEAE regardless of relation to treatment, %: (67) %
  ≥1 TEAE regardless of relation to treatment, %: 96%
[2]; Cycles 1 and 2, any grade
  TEAE Anemia, %: (36) %
  TEAE Constipation, %: (20) %
  TEAE Decreased appetite, %: (5) %
  TEAE Diarrhea, %: (11) %
  TEAE Dyspnea, %: (10) %
  TEAE Fatigue, %: (17) %
  TEAE Febrile neutropenia, %: (7) %
  TEAE Headache, %: (14) %
  TEAE Nausea, %: (17) %
  TEAE Neutropenia, %: (34) %
  TEAE Thrombocytopenia, %: (39) %
[2]; Cycles 1 and 2, listed as IV Decitabine
  ≥1 TEAE regardless of relation to treatment, %: (96) %
[2]; first 2 cycles, one AE reassigned to IV decitabine given in cycle 1
  Treatment-related serious AE rate, recalculated: 4%
[2]; first 2 treatment cycles
  Patients reporting ≥1 treatment-related serious AE: 3%
  Treatment discontinuation due to an AE: 1 patient
[2]; of 11 fatal serious AEs, oral: sepsis and pneumonia, IV: septic shock, pneumonia
  Deaths deemed related to study medication: three
MDS patients [3]
  Median survival: 14.0 months
[4]; FIG. 2A
  Peak concentrations, IV vs oral administration: higher after IV vs oral
[4]; after oral and IV therapy, except day 5 IV
  Time at which peak decitabine plasma concentrations were detected: 1 h
[4]; day 5 after IV treatment
  Time at which peak decitabine plasma concentrations were attained: 30 min
[4]; Primary endpoint, paired, cycles 1 and 2
  AUC(0-t): 865 ng·h/mL
[4]; Sensitivity, paired, includes data excluded from primary endpoint
  AUC(0-t): 870 ng·h/mL
[4]; Sensitivity, unpaired
  AUC(0-t): 866 ng·h/mL
[4]; in most patients
  Time plasma concentrations remained above the lower limit of quantification: up to 4 hours
[5]
  Overall survival (OS): 10.1 months
[6]; Cycle 1
  Max. % LINE-1 Demethylation LSM: 14.019%
[6]; Cycle 2
  Max. % LINE-1 Demethylation LSM: 11.968%
MDS patients [1]
  Median survival: 14.0-19.4 months
  Overall response rate: 32%
